# According to patent US20140314857A1, “FORMULATIONS FOR ENHANCED BIOAVAILABILITY OF ZANAMIVIR” (priority 2012, published 2014):
# Columns and labels:
# [1] = Intraduodenal bioavailability of zanamivir from glycerol and PBS formulations, enhancer pre-dose (Example 6); conditions: male, Sprague-Dawley, rat, in vivo, ID 1.5 mg/animal; for concentration at 0.25 hr / concentration at 0.5 hr / concentration at 0.83 hr / concentration at 1 hr / concentration at 1.5 hr / concentration at 2 hr: 1.5 mg/animal, Plasma concentration
# Source text: Male Sprague-Dawley rats (Hilltop Labs), 3 animals per treatment group, 250-350 grams in weight, were fitted with a jugular vein cannula (JVC). Animals intended for intraduodenal dosing were also fitted with one or more intraduodenal cannula (IDC) and those intended for intravenous dosing were fitted with a second JVC. Food was withheld from the animals for a minimum of twelve hours prior to test article administration and was returned approximately four hours post-dose. Water was supplied ad libitum.
# Intraduodenal doses composed of 1.5 mg of zanamivir and varying amounts of an enhancer (glycerol or Capmul MCM L8) were injected directly into the duodenum via the IDC. Intravenous dosing was conducted by the injection of 1.5 mg of zanamivir in 200 μL of PBS through a JVC. For some experiments, the absorption enhancer was administered intraduodenally 2 hr prior to administering 1.5 mg of zanamivir in PBS through a second IDC. Each intraduodenal dose was followed with the introduction of a small air bubble (˜10 μL) in the cannula followed by a flush of 125 μL of PBS to ensure the dose was given in full. The volume of PBS used for cannula flush was consistent across the treatment groups. The cannula was tied to prevent the PBS remaining in the cannula from entering the duodenum.
# Blood samples collected via the JVC, approximately 400 μL each, were obtained at 2 min, 5 min, 15 min, 30 min, 60 min, 90 min, and 120 min, with sodium heparin used as an anti-coagulant. Each sample was placed into a chilled tube containing the anticoagulant and kept on ice until centrifugation at 4° C., 3,000×g, for 5 min. The plasma supernatants were stored at −70° C. until LC-MS analysis.
# Dosing solution samples were assayed by LC-MS/MS using electrospray ionization. The chromatographic system consisted of Perkin Elmer series 200 micropumps and autosampler equipped with a Waters Atlantic® HILIC Silica 3 μM, 2.1×50 mm column. The mass spectrometer was a PE Sciex API 4000 with electrospray interface in multiple reaction monitoring mode. […] Stock solutions (1 mg/mL zanamivir) were prepared in water. Standards (eight concentrations) were prepared in the appropriate matched matrix (HBSSg or Sprague-Dawley rat plasma containing sodium heparin) and diluted 50-fold with methanol. Experimental samples were treated identically.
# Standards and samples were prepared in Sprague Dawley rat plasma containing sodium heparin as an anticoagulant. An eight-point calibration curve was prepared at concentrations of 1000, 750, 500, 250, 100, 50, 25, and 10 ng/mL by serial dilution. Standard samples were treated identically to the study samples.
# Plasma samples were extracted by protein precipitation in methanol.
# In this example, the bioavailability of Zanamivir was evaluated after intraduodenal doses in male Sprague-Dawley rats. The test compound was dosed at 1.5 mg/animal through intraduodenal routes from glycerol and PBS formulations. Plasma levels were determined by LC-MS/MS analysis. Pharmacokinetic parameters were estimated by a non-compartmental model using WinNonlin v5.2.1 software.
# [2] = Express IV formulation development: solubility screening in normal saline; format: physicochemical; conditions: saline or isotonic, thermodynamic from solid, NS, visual observation after vortexing
# Protocol: The following procedure and potential dosing vehicles were evaluated, and the results are described. The target concentrations of 5 mg/mL were investigated. 1. Weigh 2-5 mg of the zanamivir into a 4 mL glass vial. 2. Add the appropriate volume of normal saline. 3. Vortex, record observations of the formulation. 4. Take an aliquot and dilute it 5-fold with NS. 5. Record observations of the formulation. 6. End of the procedure.
# [3] = 50 µL PBS, 50 µL blank Capmul MCM L8 -2 hr, individual rats
# [4] = 50 µL PBS, 50 µL blank Capmul MCM L8 -2 hr, mean
# [5] = 50 µL PBS, 150 µL blank glycerol -2 hr, mean
# [6] = 50 µL PBS, 150 µL blank glycerol -2 hr, individual rats
# [7] = 100 µL Glycerol, individual rats
# [8] = 150 µL Glycerol, individual rats
compound,measurement,setting,value
"CC(=O)NC1C(NC(=N)N)C=C(C(=O)O)OC1C(O)C(O)CO (stereo not drawn) [Zanamivir, 5-acetamido-4-guanidino-6-(1,2,3-trihydroxypropyl)-5,6-dihydro-4H-pyran-2-carboxylic acid]",Tmax,"[1]; 1.5 mg, tmax, 100 µL Glycerol, mean",43.2 min
same,concentration at 0.25 hr,[1]; [3],33.3 ng/mL
same,concentration at 0.25 hr,[1]; [4],29.5 ng/mL
same,concentration at 0.5 hr,[1]; [3],38 ng/mL
same,concentration at 0.5 hr,[1]; [4],38.5 ng/mL
same,concentration at 0.83 hr,[1]; [4],10.8 ng/mL
same,concentration at 1 hr,[1]; [3],33 ng/mL
same,concentration at 1 hr,[1]; [4],32.7 ng/mL
same,concentration at 1.5 hr,[1]; [4],38.7 ng/mL
same,concentration at 2 hr,[1]; [4],33.8 ng/mL
same,concentration at 0.25 hr,[1]; [5],51.8 ng/mL
same,concentration at 0.5 hr,[1]; [6],50.2 ng/mL
same,concentration at 0.5 hr,[1]; [5],54.2 ng/mL
same,concentration at 0.83 hr,[1]; [5],24.4 ng/mL
same,concentration at 1 hr,[1]; [6],36.4 ng/mL
same,concentration at 1 hr,[1]; [5],38.2 ng/mL
same,concentration at 1.5 hr,[1]; [6],40.1 ng/mL
same,concentration at 1.5 hr,[1]; [5],40.1 ng/mL
same,concentration at 2 hr,"[1]; 50 µL PBS, 150 µL blank glycerol -2 hr, individual rats, BLOQ = below 10 ng/mL",53.4 ng/mL
same,concentration at 2 hr,[1]; [5],54.1 ng/mL
same,concentration at 0.25 hr,[1]; [7],52 ng/mL
same,concentration at 0.25 hr,"[1]; 100 µL Glycerol, mean",56.4 ng/mL
same,concentration at 0.5 hr,[1]; [7],51.4 ng/mL
same,concentration at 0.5 hr,"[1]; 100 µL Glycerol, mean",48.7 ng/mL
same,concentration at 0.83 hr,"[1]; 100 µL Glycerol, mean",57.1 ng/mL
same,concentration at 1 hr,[1]; [7],38.5 ng/mL
same,concentration at 1 hr,"[1]; 100 µL Glycerol, mean",44.4 ng/mL
same,concentration at 1.5 hr,"[1]; 100 µL Glycerol, mean",46.9 ng/mL
same,concentration at 2 hr,"[1]; 100 µL Glycerol, mean",54.2 ng/mL
same,concentration at 0.25 hr,[1]; [8],109 ng/mL
same,concentration at 0.25 hr,"[1]; 150 µL Glycerol, mean",87.7 ng/mL
same,concentration at 0.5 hr,"[1]; 150 µL Glycerol, mean",69.2 ng/mL
same,concentration at 0.83 hr,[1]; [8],139 ng/mL
same,concentration at 0.83 hr,"[1]; 150 µL Glycerol, mean",107 ng/mL
same,concentration at 1 hr,[1]; [8],52.5 ng/mL
same,concentration at 1 hr,"[1]; 150 µL Glycerol, mean",49.9 ng/mL
same,concentration at 1.5 hr,"[1]; 150 µL Glycerol, mean",36.6 ng/mL
same,concentration at 2 hr,"[1]; 150 µL Glycerol, mean",29.3 ng/mL
same,solubility,[2],≥ 5000 µg/mL
